Source: patent US9302999B2, “Substituted triazoles as herbicides” (E. I. DU PONT DE NEMOURS AND COMPANY, priority 2012, dated 2016)

System: johnsongrass (Sorghum halepense)
Experiment: Test F pre-/postemergence: johnsongrass
Format: in vivo
Settings: Preemergence
Description: Seeds of plant species selected from corn (Zea mays), soybean (Glycine max), velvetleaf (Abutilon theophrasti), lambsquarters (Chenopodium album), poinsettia, wild (wild poinsettia, Euphorbia heterophylla), pigweed, palmer (palmer pigweed, Amaranthus palmeri), waterhemp (common waterhemp, Amaranthus rudis), surinam grass (Brachiaria decumbens), crabgrass, Brazil (Brazilian crabgrass, Digitaria horizontalis), panicum, fall (fall panicum Panicum dichotomiflorum), crabgrass, large (large crabgrass, Digitaria sanguinalis), foxtail, giant (giant foxtail, Setaria faberii), foxtail, green (green foxtail Setaria viridis), goosegrass (Eleusine indica), ragweed (common ragweed, Ambrosia elatior), barnyardgrass (Echinochloa crus-galli), sandbur (southern sandbur, Cenchrus echinatus), arrowleaf sida (Sida rhombifolia), ryegrass, Italian (Italian ryegrass, Lolium multiflorum), dayflower, VA (Virginia (VA) dayflower, Commelina virginica), field bindweed (Convolvulus arvensis), cocklebur (common cocklebur, Xanthium strumarium), morningglory (Ipomoea coccinea), nightshade (eastern black nightshade, Solanum ptycanthum), kochia (Kochia scoparia), nutsedge, yellow (yellow nutsedge, Cyperus esculentus), johnsongrass (Sorghum halepense), smartweed (ladysthumb smartweed, Polygonum persicaria), and beggarticks (hairy beggarticks, Bidens pilosa), were planted into a silt loam soil and treated preemergence with test chemicals formulated in a non-phytotoxic solvent mixture which included a surfactant. At the same time, plants selected from these crop and weed species and also pigweed (Amaranthus retroflexus), waterhemp_RES1 (ALS/Triazine resistant common waterhemp, Amaranthus rudis) and waterhemp_RES2 (ALS/HPPD resistant common waterhemp, Amaranthus rudis) were planted in pots containing a planting medium comprising spaghnum peat moss, vermiculite, wetting agent and starter nutrients treated with postemergence applications of some of the test chemicals formulated in the same manner. Plants ranged in height from 2 to 18 cm for postemergence treatments (1- to 4-leaf stage).
Treated plants and controls were maintained in a greenhouse for 14 to 21 days, after which time all species were compared to controls and visually evaluated. Plant response ratings, summarized in Table E, are based on a scale of 0 to 100 where 0 is no effect and 100 is complete control. A dash (-) response means no test result.

[1] = 16 g ai/ha, scale 0 to 100, 0 no effect, 100 complete control
[2] = 31 g ai/ha, scale 0 to 100, 0 no effect, 100 complete control

SMILES	Plant response rating, Johnsongrass [1]	Plant response rating, Johnsongrass [2]	Plant response rating, Johnsongrass (62 g ai/ha, scale 0 to 100)	Plant response rating, Johnsongrass (125 g ai/ha, scale 0 to 100)	Plant response rating, Johnsongrass (250 g ai/ha, scale 0 to 100)
Cc1nn(-c2ccc(F)cc2F)nc1Oc1ccnc(C(F)(F)F)c1 [Compound 146]	0	50	60	70	100
CCc1nn(-c2ccc(C(F)(F)F)cc2)nc1Oc1ccnc(C(F)(F)F)c1 [Compound 169]	0	0	20	50	80
CCc1nn(-c2ccc(F)c(F)c2)nc1Oc1ccnc(C(F)(F)F)c1 [Compound 171]	0	0	10	65	75
CCCc1nn(-c2ccc(F)c(F)c2)nc1Oc1ccnc(C(F)(F)F)c1 [Compound 172]		50		75	100
